Data: publication PMC9508196 (Scientific Reports, 2022)
Converted amounts (≈) assume the structure as drawn. Read-outs that look alike come from different tables or passages of the source.

Assays:
[1] = test system: A. baumannii isolate D-10.1-2; assay: Disk diffusion test (CLSI), antibiotic susceptibility profile; type: cell-based, Acinetobacter baumannii; conditions: CLSI breakpoints
Procedure: (§1) ^aAntibiotic susceptibility profile of all isolated strains was evaluated by disk diffusion test, using the standard protocol guide of the Clinical and Laboratory Standards Institute (CLSI), and interpreted as S: Susceptible to standard dosing regimen; I: Intermediate; R: Resistant (in accordance with the criteria of CLST breakpoints).

[2] = test system: A. baumannii isolate D-10.1-1; assay: as above; type: cell-based, Acinetobacter baumannii; conditions: CLSI breakpoints
Procedure: as §1

[3] = test system: A. baumannii isolate C-8.2-1; assay: as above; type: cell-based, Acinetobacter baumannii; conditions: CLSI breakpoints
Procedure: as §1

[4] = test system: A. baumannii isolate A-8.2-1; assay: as above; type: cell-based, Acinetobacter baumannii; conditions: CLSI breakpoints
Procedure: as §1

[5] = test system: A. baumannii isolate C-8.1-2; assay: as above; type: cell-based, Acinetobacter baumannii; conditions: CLSI breakpoints
Procedure: as §1

[6] = test system: A. baumannii isolate B-8.1-1; assay: as above; type: cell-based, Acinetobacter baumannii; conditions: CLSI breakpoints
Procedure: as §1

[7] = test system: A. baumannii isolate B-8.1-2; assay: as above; type: cell-based, Acinetobacter baumannii; conditions: CLSI breakpoints
Procedure: as §1

[8] = test system: A. baumannii isolate B-8.2-2; assay: as above; type: cell-based, Acinetobacter baumannii; conditions: CLSI breakpoints
Procedure: as §1

[9] = test system: A. baumannii C-8.2–1 (XDR); assay: microbe, parasite or virus in culture; type: cell-based, Acinetobacter baumannii
Excerpt: (§2) Ten strains of both Gram-positive and -negative bacteria, including Staphylococcus aureus ATCC 25,923, S. epidermidis ATCC 12,228, Bacillus cereus ATCC 11,778, Listeria monocytogenes 10403S, Salmonella typhimurium ATCC 13,311, Pseudomonas aeruginosa ATCC 27,853, Shigella sonnei ATCC 11,060, A. baumannii ATCC 19,606, Escherichia coli ATCC 25,922 and E. coli O157:H7, were used in this study. Eight clinical isolates of multidrug-resistant (MDR) and extensively drug-resistant (XDR) A. baumannii, isolated from human (blood, sputum, respiratory sample, sterile site sample and urine), were kindly provided by Asst. Prof. Dr. Sakawrat Kanthawong (Faculty of Medicine, Khon Kaen University, Thailand) (Table S1). All bacterial strains, excluding L. monocytogenes 10403S and E. coli, were cultured in tryptic soy broth (TSB). L. monocytogenes was grown in TSB supplemented with 0.6% yeast extract (TSB-YE), and E. coli was cultured in Luria broth (LB). All of bacteria were cultured at 37 °C with continuous shaking at 220 rpm.
(§3) Minimum inhibitory concentration (MIC) of peptides and antibiotics was assessed by a modified version of the broth microdilution method from the Clinical and Laboratory Standards Institute (CLSI) as previously described. In brief, mid-log phase growths of microbial strains were cultured in Müeller-Hinton broth (MHB) with an initial inoculum of 2–8 × 10^5 CFU/mL. Bacteria suspensions were incubated in sterile 96-well plates with test agents at desired concentrations. […] Minimum bactericidal concentration (MBC) determination was performed using a modified version of the colony count assay. In brief, fifty µl of all non-turbid wells from MIC experiments were spread on agar plates. The MBC value was defined as the lowest concentration of peptides with no colony growth on the plate. All assays were performed in triplicate.

[10] = test system: A. baumannii A-8.2–1 (XDR); assay: microbe, parasite or virus in culture; type: cell-based, Acinetobacter baumannii
Excerpt: as §2, §3

A. baumannii ATCC 19,606 [11] = assay: microbe, parasite or virus in culture; type: cell-based, Acinetobacter baumannii
Excerpt: as §2, §3

[12] = test system: A. baumannii B-8.1–2 (MDR); assay: microbe, parasite or virus in culture; type: cell-based, Acinetobacter baumannii
Excerpt: as §2, §3

[13] = test system: A. baumannii B-8.2–2 (XDR); assay: microbe, parasite or virus in culture; type: cell-based, Acinetobacter baumannii
Excerpt: as §2, §3

[14] = test system: A. baumannii B-8.1–1 (MDR); assay: microbe, parasite or virus in culture; type: cell-based, Acinetobacter baumannii
Excerpt: as §2, §3

[15] = test system: A. baumannii C-8.1–2 (MDR); assay: microbe, parasite or virus in culture; type: cell-based, Acinetobacter baumannii
Excerpt: as §2, §3

A. baumannii ATCC 19,606 [16] = assay: microbe, parasite or virus in culture; conditions: for fold increase of MIC: serial passages at half-MIC
Procedure: A. baumannii ATCC 19,606 was adjusted to approximately 10^6 CFU/ml in MHB. […] After 24 h incubation, bacterial suspensions of the wells at half-MIC concentration of tested agent were taken and washed 2 times with MHB to prepare the next initial-passage of bacteria. Twenty repeat passages were performed for each tested compound. Along with the test, a negative control was included: the MIC value of bacteria cultured in MHB-deionized water after 20 passages.

[17] = test system: A. baumannii D-10.1–1 (MDR); type: cell-based, Acinetobacter baumannii; conditions: clinical isolate D-10.1–1 (MDR), urine
Excerpt: as §2, §3

[18] = test system: A. baumannii D-10.1–2 (MDR); type: cell-based, Acinetobacter baumannii; conditions: clinical isolate D-10.1–2 (MDR), urine
Excerpt: as §2, §3

[19] = Acinetobacter baumannii, ATCC19
[20] = Acinetobacter baumannii, ATCC19, 24 h
[21] = clinical isolate C-8.2–1 (XDR), sterile site
[22] = clinical isolate A-8.2–1 (XDR), blood
[23] = clinical isolate B-8.1–2 (MDR), respiratory tract
[24] = clinical isolate B-8.2–2 (XDR), respiratory tract
[25] = clinical isolate B-8.1–1 (MDR), respiratory tract
[26] = clinical isolate C-8.1–2 (MDR), sterile site

Question: For `C[C@H]1COc2c(N3CCN(C)CC3)c(F)cc3c(=O)c(C(=O)O)cn1c23` [Levofloxacin], which Antibiotic susceptibility profile [1] is on record?
Answer: R

Question: What about the Antibiotic susceptibility profile [2] of the same compound?
Answer: I

Question: What about the Antibiotic susceptibility profile [3] of the same compound?
Answer: R

Question: And the Antibiotic susceptibility profile [4]?
Answer: R

Question: What about the Antibiotic susceptibility profile [5] of the same compound?
Answer: R

Question: What about the Antibiotic susceptibility profile [6] of the same compound?
Answer: S

Question: What about the Antibiotic susceptibility profile [7] of the same compound?
Answer: R

Question: And the Antibiotic susceptibility profile [8]?
Answer: R

Question: And the MBC ([9]; Acinetobacter baumannii)?
Answer: 7.81 µg/mL (≈ 21.6 µM)

Question: And the MIC ([9]; Acinetobacter baumannii)?
Answer: 3.91 µg/mL (≈ 10.8 µM)

Question: What about the MBC ([10]; Acinetobacter baumannii) of the same compound?
Answer: 3.91 µg/mL (≈ 10.8 µM)

Question: What about the MIC ([10]; Acinetobacter baumannii) of the same compound?
Answer: 3.91 µg/mL (≈ 10.8 µM)

Question: What about the MBC (A. baumannii ATCC 19,606 [11]; [19]) of the same compound?
Answer: ≤ 0.49 µg/mL

Question: And the MIC (A. baumannii ATCC 19,606 [11]; [20])?
Answer: ≤ 0.49 µg/mL

Question: And the MBC ([12]; Acinetobacter baumannii)?
Answer: 250 µg/mL (≈ 692 µM)

Question: What about the MIC ([12]; Acinetobacter baumannii) of the same compound?
Answer: 125 µg/mL (≈ 346 µM)

Question: What about the MBC ([13]; Acinetobacter baumannii) of the same compound?
Answer: 7.81 µg/mL (≈ 21.6 µM)

Question: And the MIC ([13]; Acinetobacter baumannii)?
Answer: 7.81 µg/mL (≈ 21.6 µM)

Question: And the MBC ([14]; Acinetobacter baumannii)?
Answer: 1.95 µg/mL (≈ 5.4 µM)

Question: And the MIC ([14]; Acinetobacter baumannii)?
Answer: ≤ 0.49 µg/mL

Question: What about the MBC ([15]; Acinetobacter baumannii) of the same compound?
Answer: 31.2 µg/mL (≈ 86.5 µM)

Question: What about the MIC ([15]; Acinetobacter baumannii) of the same compound?
Answer: 31.2 µg/mL (≈ 86.5 µM)

Question: For `C[C@@H](O)[C@H]1C(=O)N2C(C(=O)O)=C(S[C@@H]3CN[C@H](C(=O)N(C)C)C3)[C@H](C)[C@H]12` [Meropenem], which Antibiotic susceptibility profile [1] is on record?
Answer: R

Question: What about the Antibiotic susceptibility profile [2] of the same compound?
Answer: R

Question: And the Antibiotic susceptibility profile [3]?
Answer: R

Question: And the Antibiotic susceptibility profile [4]?
Answer: R

Question: And the Antibiotic susceptibility profile [5]?
Answer: R

Question: What about the Antibiotic susceptibility profile [6] of the same compound?
Answer: S

Question: And the Antibiotic susceptibility profile [7]?
Answer: R

Question: What about the Antibiotic susceptibility profile [8] of the same compound?
Answer: R

Question: And the MBC ([9]; Acinetobacter baumannii)?
Answer: 250 µg/mL (≈ 652 µM)

Question: What about the MIC ([9]; Acinetobacter baumannii) of the same compound?
Answer: 125 µg/mL (≈ 326 µM)

Question: And the MBC ([10]; Acinetobacter baumannii)?
Answer: 62.5 µg/mL (≈ 163 µM)

Question: What about the MIC ([10]; Acinetobacter baumannii) of the same compound?
Answer: 62.5 µg/mL (≈ 163 µM)

Question: What about the MBC (A. baumannii ATCC 19,606 [11]; [19]) of the same compound?
Answer: 0.98 µg/mL (≈ 2.56 µM)

Question: What about the MIC (A. baumannii ATCC 19,606 [11]; [20]) of the same compound?
Answer: 0.98 µg/mL (≈ 2.56 µM)

Question: And the MBC ([12]; Acinetobacter baumannii)?
Answer: 125 µg/mL (≈ 326 µM)

Question: What about the MIC ([12]; Acinetobacter baumannii) of the same compound?
Answer: 125 µg/mL (≈ 326 µM)

Question: What about the MBC ([13]; Acinetobacter baumannii) of the same compound?
Answer: 125 µg/mL (≈ 326 µM)

Question: And the MIC ([13]; Acinetobacter baumannii)?
Answer: 125 µg/mL (≈ 326 µM)

Question: And the MBC ([14]; Acinetobacter baumannii)?
Answer: 15.6 µg/mL (≈ 40.8 µM)

Question: And the MIC ([14]; Acinetobacter baumannii)?
Answer: 0.98 µg/mL (≈ 2.56 µM)

Question: What about the MBC ([15]; Acinetobacter baumannii) of the same compound?
Answer: 125 µg/mL (≈ 326 µM)

Question: What about the MIC ([15]; Acinetobacter baumannii) of the same compound?
Answer: 125 µg/mL (≈ 326 µM)

Question: And the MIC (A. baumannii ATCC 19,606 [16]; Acinetobacter baumannii, ATCC19, 24 h, read-out: MIC after 20 passages)?
Answer: 15.6 µg/mL (≈ 40.8 µM)

Question: What about the “fold increase in MIC compared to the first passage” value (A. baumannii ATCC 19,606 [16]; after passage 20) of the same compound?
Answer: 16 fold

Question: What about the “fold increase of MIC” value (A. baumannii ATCC 19,606 [16]; day 4) of the same compound?
Answer: 2 fold

Question: And the “fold increase of MIC” value (A. baumannii ATCC 19,606 [16]; day 6)?
Answer: 4 fold

Question: And the “fold increase of MIC” value (A. baumannii ATCC 19,606 [16]; day 11)?
Answer: eight

Question: Which results are given for Colistin?
Answer: Antibiotic susceptibility profile [1]: S; Antibiotic susceptibility profile [2]: S; Antibiotic susceptibility profile [3]: S; Antibiotic susceptibility profile [4]: S; Antibiotic susceptibility profile [5]: S; Antibiotic susceptibility profile [6]: S; Antibiotic susceptibility profile [7]: S; Antibiotic susceptibility profile [8]: S; MBC [9, 21]: 0.98(0.98) µg/ml; MIC [9, 21]: 0.98(0.98) µg/ml; MBC [10, 22]: 1.95(1.95) µg/ml; MIC [10, 22]: 1.95(1.95) µg/ml; MIC (A. baumannii ATCC 19,606 [11]; A. baumannii ATCC 19,606, broth microdilution (modified CLSI), MHB, 2–8 × 10^5 CFU/mL, 24 h, 37 °C, triplicate): 0.98(0.98) µg/ml; MBC (A. baumannii ATCC 19,606 [11]; A. baumannii ATCC 19,606, colony count from non-turbid MIC wells, triplicate): 0.98(0.98) µg/ml; MBC [12, 23]: 0.98(0.98) µg/ml; MIC [12, 23]: 0.98(0.98) µg/ml; MBC [13, 24]: 1.95(1.95) µg/ml; MIC [13, 24]: 1.95(1.95) µg/ml; MBC [14, 25]: 1.95(1.95) µg/ml; MIC [14, 25]: 1.95(1.95) µg/ml; MBC [15, 26]: 1.95(1.95) µg/ml; MIC [15, 26]: 1.95(1.95) µg/ml; MBC [17]: 0.98(0.98) µg/ml; MIC [17]: 0.98(0.98) µg/ml; MBC [18]: 1.95(1.95) µg/ml; MIC [18]: 1.95(1.95) µg/ml
